In US9908843B2, “Benzamide derivatives useful in the treatment of muscular disorders and pain and for controlling spasticity and tremors” (Canbex Therapeutics Limited, priority 2013, dated 2018):
Where two headings read alike, the source gives them in different places.

Experiments:
[1] = system: mouse vas deferens (CB2 knock-out); test: VSN-16R dose response curve in mouse vas deferens, CB2 knock-out; type: cell-based
[2] = system: mouse vas deferens (CB1 knock-out); test: VSN-16R dose response curve in mouse vas deferens, CB1 knock-out; type: cell-based
mouse vas deferens = test: Inhibition of electrically-evoked contractions of the mouse isolated vas deferens; type: cell-based; conditions: for potency (EC50) greater than VSN-16R: vas deferens mouse assay, relative to VSN-16R
Procedure: Compounds were evaluated using a mouse vas deferens preparation [Ward S, Mastriani D, Casiano F and Arnold R (1990) J Pharmacol Exp Ther 255:1230-1239]. The mouse vas deferens isolated tissue preparation is used as an in vitro bioassay to assess the actions of compounds on neurotransmission. Electrically-evoked contractions are induced in the preparation and compounds which affect neurotransmission will inhibit these contractions in a concentration related manner. […] CB1 agonists inhibit electrically-evoked contractions.
Vasa deferentia were obtained from albino MF1 mice weighing 31-59 g. The tissues were mounted vertically in 4 ml organ baths. They were then subjected to electrical stimulation of progressively greater intensity, followed by an equilibration procedure in which they were exposed to alternate periods of stimulation (2 min) and rest (10 min) until contractions with consistent amplitudes were obtained. These contractions were monophasic and isometric, and were evoked by 0.5 s trains of pulses of 110% maximal voltage (train frequency 0.1 Hz; pulse frequency 5 Hz; pulse duration 0.5 ms).
All drug additions were made to the organ baths after the equilibration period and there was no washout between these additions. Potential antagonist or its vehicle were added to the preparation. This was followed 28 min later by a 2-min period of electrical stimulation, at the end of which the lowest of a series of concentrations of the twitch inhibitors was applied. After a period of rest, the tissues were electrically stimulated for 2 min and then subjected to a further addition of twitch inhibitor. This cycle of drug addition, rest and 2 min stimulation was repeated so as to construct cumulative concentration—response curves. Only one concentration—response curve was constructed per tissue.
Values for EC50, maximal effect (Emax) and the s.e.m. or 95% confidence limits of these values have been calculated by nonlinear regression analysis using the equation for a sigmoid concentration—response curve (GraphPad Prism).

spasticity in CREAE mice = conditions: cited from earlier work
[3] = Mus musculus, Table 2, read-out: EC50
[4] = Mus musculus, Table 2, read-out: Emax (%)

Structure (SMILES)	EC50 (mouse vas deferens; [3])	Emax (mouse vas deferens; [4])	other results
C[C@H](CO)NC(=O)c1cccc(/C=C\CCCC(=O)N(C)C)c1 [VSN16R, reference compound]	–	–	EC50 [1]: 17.6 nM; EC50 [2]: 12.7 nM; Emax (mouse vas deferens; Mus musculus): 40.7%; EC50 (mouse vas deferens; Mus musculus, Table 1): 10.4 nM; EC50 (mouse vas deferens; Mus musculus, Table 2): 0.722 nM; Emax (mouse vas deferens; Mus musculus, read-out: Emax (%) ± 95% confidence limits): 56%; EC50 (mouse vas deferens; Mus musculus, read-out: pEC50 ± SEM, Table 1 (converted)): 10.5 nM; EC50 (mouse vas deferens; Mus musculus, wild type, FIG. 3): 10.4 nM
CC(CO)NC(=O)c1cccc(/C=C\CCCC(=O)N(C)C)c1 (stereo not shown) [VSN16]	–	–	effect on spasticity (spasticity in CREAE mice): marked effect on spasticity
Cc1c(C(=O)c2cccc3ccccc23)c2cccc3c2n1[C@H](CN1CCOCC1)CO3 [WIN55212-2, reference compound]	–	–	pEC50 ± SEM (mouse vas deferens; Table 1): 8.41 ± 0.237; Emax (%) ± 95% confidence limits (mouse vas deferens; Table 1, inhibition of electrically-evoked twitch response): 62 (52-72) %; EC50 (mouse vas deferens; Table 1, read-out: EC50): 3.86 nM
C[C@@H](NC(=O)c1cccc(/C=C\CCCC(=O)N(C)C)c1)C(=O)O [[1], (Z)-(3-(6-(dimethylamino)-6-oxohex-1-en-1-yl)benzoyl)-D-alanine]	0.00655 nM	64%	EC50 (mouse vas deferens; Mus musculus, Table 1, read-out: EC50): 1.42 nM; EC50 (mouse vas deferens; Mus musculus, Table 1, read-out: pEC50 ± SEM (converted)): 1.41 nM; Emax (mouse vas deferens; Mus musculus, Table 1, inhibition of electrically-evoked twitch response, read-out: Emax (%) ± 95% confidence limits): 46%; potency (EC50) greater than VSN-16R (mouse vas deferens): 10 fold; potency (EC50) greater than VSN-16R (mouse vas deferens; listed as VSN44): ten-fold greater; potency (EC50) greater than VSN-16R (mouse vas deferens; listed as VSN-44): ≥ 10 fold
CN(C)C(=O)CCC/C=C\c1cccc(C(=O)N[C@H](CO)C(=O)O)c1 [[14], (R,Z)-2-(3-(6-(dimethylamino)-6-oxohex-1-en-1-yl)benzamido)-3-hydroxypropanoic acid]	0.124 nM	58.5%	–
CN(C)C(=O)CCC/C=C\c1cccc(C(=O)NCC(=O)O)c1 [[15], (Z)-2-(3-(6-(dimethylamino)-6-oxohex-1-en-1-yl)benzamido)acetic acid]	0.102 nM	53.7%	–
CN(C)C(=O)CCC/C=C\c1cccc(C(=O)N[C@H](Cc2ccccc2)C(=O)O)c1 [[16], (R,Z)-2-(3-(6-(dimethylamino)-6-oxohex-1-en-1-yl)benzamido)-3-phenylpropanoic acid]	0.00604 nM	73.9%	–
CN(C)C(=O)CCC/C=C\c1cccc(C(=O)N[C@@H](Cc2ccccc2)C(=O)O)c1 [[17], (S,Z)-2-(3-(6-(dimethylamino)-6-oxohex-1-en-1-yl)benzamido)-3-phenylpropanoic acid]	0.14 nM	56.3%	–
CN(C)C(=O)CCC/C=C\c1cccc(C(=O)N[C@@H](CO)C(=O)O)c1 [[18], (S,Z)-2-(3-(6-(dimethylamino)-6-oxohex-1-en-1-yl)benzamido)-3-hydroxypropanoic acid]	0.382 nM	62.7%	–
COC(=O)[C@@H](C)NC(=O)c1cccc(C#CCCCC(=O)N2CCCC2)c1 [[20], (R)-methyl 2-(3-(6-oxo-6-(pyrrolidin-1-yl)hex-1-yn-1-yl)benzamido)propanoate]	0.466 nM	44.7%	–
COC(=O)[C@@H](C)NC(=O)c1cccc(/C=C\CCCC(=O)N2CCCC2)c1 [[21], (R,Z)-methyl 2-(3-(6-oxo-6-(pyrrolidin-1-yl)hex-1-en-1-yl)benzamido)propanoate]	0.162 nM	58.3%	–
COC(=O)CNC(=O)c1cccc(C#CCCCC(=O)N(C)C)c1 [[22], methyl 2-(3-(6-(dimethylamino)-6-oxohex-1-yn-1-yl)benzamido)acetate]	0.112 nM	52.9%	–
COC(=O)CNC(=O)c1cccc(/C=C\CCCC(=O)N(C)C)c1 [[23], (Z)-methyl 2-(3-(6-(dimethylamino)-6-oxohex-1-en-1-yl)benzamido)acetate]	0.0225 nM	59.2%	–
COC(=O)[C@H](CO)NC(=O)c1cccc(C#CCCCC(=O)N(C)C)c1 [[24], (S)-methyl 2-(3-(6-(dimethylamino)-6-oxohex-1-yn-1-yl)benzamido)-3-hydroxypropanoate]	0.412 nM	51.5%	–
COC(=O)[C@H](CO)NC(=O)c1cccc(/C=C\CCCC(=O)N(C)C)c1 [[25], (S,Z)-methyl 2-(3-(6-(dimethylamino)-6-oxohex-1-en-1-yl)benzamido)-3-hydroxypropanoate]	0.359 nM	52.9%	–
COC(=O)[C@H](Cc1ccccc1)NC(=O)c1cccc(/C=C\CCCC(=O)N(C)C)c1 [[27], (S,Z)-methyl 2-(3-(6-(dimethylamino)-6-oxohex-1-en-1-yl)benzamido)-3-phenylpropanoate]	0.0908 nM	55.3%	–
COC(=O)[C@@H](CO)NC(=O)c1cccc(/C=C\CCCC(=O)N(C)C)c1 [[29], (R,Z)-methyl 2-(3-(6-(dimethylamino)-6-oxohex-1-en-1-yl)benzamido)-3-hydroxypropanoate]	0.0456 nM	62%	–
COC(=O)[C@@H](Cc1ccccc1)NC(=O)c1cccc(C#CCCCC(=O)N(C)C)c1 [[30], (R)-methyl 2-(3-(6-(dimethylamino)-6-oxohex-1-yn-1-yl)benzamido)-3-phenylpropanoate]	0.0614 nM	46.3%	–
COC(=O)[C@@H](Cc1ccccc1)NC(=O)c1cccc(/C=C\CCCC(=O)N(C)C)c1 [[31], (R,Z)-methyl 2-(3-(6-(dimethylamino)-6-oxohex-1-en-1-yl)benzamido)-3-phenylpropanoate]	0.0122 nM	47%	–
COC(=O)[C@H](C)NC(=O)c1cccc(C#CCCCC(=O)N(C)C)c1 [[32], (S)-methyl 2-(3-(6-(dimethylamino)-6-oxohex-1-yn-1-yl)benzamido)propanoate]	0.0131 nM	54.6%	–
